Reference: patent US20240246815A1, “CHLORINE PEROXIDE RADICAL, AND PRODUCTION METHOD, COMPOSITION, QUANTIFICATION METHOD AND USE THEREOF” (SANKEI CO., LTD., priority 2021, published 2024)

Assay: Longevity of ESR signals in aqueous solution obtained by adding an acid to sodium chlorite
Format: physicochemical
Settings: relatively low concentration of HCl (0.1 M sodium chlorite with 0.08 M HCl 1:1), stored in a dark location
Protocol: An aqueous solution obtained by adding an acid to sodium chlorite was prepared by mixing 0.1 M sodium chlorite with 2.5 M hydrochloric acid to achieve a desired concentration by using ion exchange water. The concentration of sodium chlorite was measured by standard iodometry.
An aqueous solution obtained by adding an acid to sodium chlorite was placed in a glass capillary tube with a length of 100 mm and inner diameter of 2 mm. The glass capillary was transferred to a capillary cell attached to an ESR cavity, and ESR measurement was taken by using an X band spectrometer (JEOL FA-100ESR) operated at 9.43 GHz at room temperature. The magnetic field was modulated at 100 KHz. […] The signal intensity was normalized with respect to an MnO marker, and the concentration of stable radical products was determined based on signal height by using an external standard TEMPOL. Radical species found in an aqueous solution obtained by adding an acid to sodium chlorite was quantified by using an integrated software for determining a spectral region mounted onto an ESR device.
Free radicals in an aqueous solution obtained by adding an acid to sodium chlorite were measured by using ESR measurement. […] The solution was measured 4 minutes later by ESR spectroscopy. […]

chlorine peroxide radical
ESR signals remained stable: one
